Patent US11447466B2, “Substituted indole compounds useful as inhibitors of TLR7/8/9” (BRISTOL-MYERS SQUIBB COMPANY, priority 2017, dated 2022)

Experiments:
Assay type in all cases: cell-based
human TLR7 = molecular target: T1, human TLR7 (Homo sapiens, UniProt Q9NYK1); assay: TLR7 inhibition reporter assay (HEK-Blue SEAP reporter, gardiquimod stimulation); settings: HEK-Blue cells overexpressing human TLR7, SEAP reporter, gardiquimod 7.5 μM, 22 hour incubation
T1 construct: host or cells: HEK-Blue cells
T1 sequence (Q9NYK1 27-1049): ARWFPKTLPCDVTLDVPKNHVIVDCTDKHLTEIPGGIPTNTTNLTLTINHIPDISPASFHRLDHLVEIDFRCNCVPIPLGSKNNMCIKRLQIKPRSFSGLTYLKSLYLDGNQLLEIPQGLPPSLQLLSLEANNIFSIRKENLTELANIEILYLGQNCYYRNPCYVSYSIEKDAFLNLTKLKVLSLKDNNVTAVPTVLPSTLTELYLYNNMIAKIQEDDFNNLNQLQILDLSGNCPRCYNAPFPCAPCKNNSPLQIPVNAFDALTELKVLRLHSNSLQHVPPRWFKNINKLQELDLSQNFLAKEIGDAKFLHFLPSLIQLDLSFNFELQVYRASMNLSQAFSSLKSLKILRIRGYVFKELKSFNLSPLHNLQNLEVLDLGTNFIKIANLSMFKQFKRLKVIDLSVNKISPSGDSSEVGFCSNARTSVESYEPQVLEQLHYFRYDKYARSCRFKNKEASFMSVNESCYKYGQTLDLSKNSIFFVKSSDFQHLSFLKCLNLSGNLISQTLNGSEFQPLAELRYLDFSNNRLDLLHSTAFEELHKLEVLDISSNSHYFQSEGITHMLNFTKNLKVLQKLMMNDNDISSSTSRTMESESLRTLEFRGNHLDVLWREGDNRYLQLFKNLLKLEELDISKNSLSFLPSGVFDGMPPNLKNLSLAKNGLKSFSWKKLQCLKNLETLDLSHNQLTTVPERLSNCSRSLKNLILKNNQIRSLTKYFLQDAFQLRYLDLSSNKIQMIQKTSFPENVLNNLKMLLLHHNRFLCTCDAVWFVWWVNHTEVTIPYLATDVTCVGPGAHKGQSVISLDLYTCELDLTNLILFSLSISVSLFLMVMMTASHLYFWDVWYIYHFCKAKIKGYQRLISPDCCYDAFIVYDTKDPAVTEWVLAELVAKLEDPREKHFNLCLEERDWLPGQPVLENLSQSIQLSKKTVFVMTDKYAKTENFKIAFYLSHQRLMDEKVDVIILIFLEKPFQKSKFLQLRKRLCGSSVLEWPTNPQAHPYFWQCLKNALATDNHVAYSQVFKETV
Method in brief: (§1)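 Compound treatment: 30 min, RT, 0.05 nM–50 μM final. Agonist: TLR7 gardiquimod 7.5 μM; TLR8 R848 15.9 μM; TLR9 ODN2006 5 nM. Incubation 22 h, 37 °C, 5% CO2. Readout SEAP, HEK-Blue Detection.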

human TLR8 = molecular target: T2, human TLR8 (Homo sapiens, UniProt Q9NR97); assay: TLR8 inhibition reporter assay (HEK-Blue SEAP reporter, R848 stimulation); settings: HEK-Blue cells overexpressing human TLR8, SEAP reporter, R848 15.9 μM, 22 hour incubation
T2 construct: host or cells: HEK-Blue cells
T2 sequence (Q9NR97 27-1041): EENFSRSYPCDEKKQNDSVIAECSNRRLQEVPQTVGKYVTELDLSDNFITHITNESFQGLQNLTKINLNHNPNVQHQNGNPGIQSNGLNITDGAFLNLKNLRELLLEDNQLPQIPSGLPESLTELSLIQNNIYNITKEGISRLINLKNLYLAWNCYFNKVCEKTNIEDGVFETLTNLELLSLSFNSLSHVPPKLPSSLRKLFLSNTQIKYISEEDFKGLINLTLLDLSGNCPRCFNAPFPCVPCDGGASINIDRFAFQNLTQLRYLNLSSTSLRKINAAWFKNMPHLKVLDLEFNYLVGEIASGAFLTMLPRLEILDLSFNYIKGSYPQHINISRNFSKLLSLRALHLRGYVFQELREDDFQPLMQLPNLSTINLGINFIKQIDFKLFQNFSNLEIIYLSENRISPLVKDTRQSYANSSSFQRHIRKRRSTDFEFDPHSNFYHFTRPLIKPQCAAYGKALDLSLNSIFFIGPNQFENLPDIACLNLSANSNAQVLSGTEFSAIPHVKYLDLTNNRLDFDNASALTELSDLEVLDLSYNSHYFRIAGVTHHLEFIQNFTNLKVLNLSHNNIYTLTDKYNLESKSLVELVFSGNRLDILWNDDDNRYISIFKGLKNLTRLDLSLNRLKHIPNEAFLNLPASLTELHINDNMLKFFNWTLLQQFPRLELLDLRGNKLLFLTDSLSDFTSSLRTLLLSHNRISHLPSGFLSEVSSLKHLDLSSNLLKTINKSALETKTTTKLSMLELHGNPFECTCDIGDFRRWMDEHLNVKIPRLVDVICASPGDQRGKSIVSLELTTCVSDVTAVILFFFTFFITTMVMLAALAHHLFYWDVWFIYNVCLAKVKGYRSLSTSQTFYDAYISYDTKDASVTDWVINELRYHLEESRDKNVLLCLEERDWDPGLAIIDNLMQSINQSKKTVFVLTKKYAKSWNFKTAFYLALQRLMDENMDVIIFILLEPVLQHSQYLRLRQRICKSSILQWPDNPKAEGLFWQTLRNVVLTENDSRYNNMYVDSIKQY
Method in brief: as §1

human TLR9 = molecular target: T3, human TLR9 (Homo sapiens, UniProt Q9NR96); assay: TLR9 inhibition reporter assay (HEK-Blue SEAP reporter, ODN2006 stimulation); settings: HEK-Blue cells overexpressing human TLR9, SEAP reporter, ODN2006 5 nM, 22 hour incubation
T3 construct: host or cells: HEK-Blue cells
T3 sequence (Q9NR96 26-1032): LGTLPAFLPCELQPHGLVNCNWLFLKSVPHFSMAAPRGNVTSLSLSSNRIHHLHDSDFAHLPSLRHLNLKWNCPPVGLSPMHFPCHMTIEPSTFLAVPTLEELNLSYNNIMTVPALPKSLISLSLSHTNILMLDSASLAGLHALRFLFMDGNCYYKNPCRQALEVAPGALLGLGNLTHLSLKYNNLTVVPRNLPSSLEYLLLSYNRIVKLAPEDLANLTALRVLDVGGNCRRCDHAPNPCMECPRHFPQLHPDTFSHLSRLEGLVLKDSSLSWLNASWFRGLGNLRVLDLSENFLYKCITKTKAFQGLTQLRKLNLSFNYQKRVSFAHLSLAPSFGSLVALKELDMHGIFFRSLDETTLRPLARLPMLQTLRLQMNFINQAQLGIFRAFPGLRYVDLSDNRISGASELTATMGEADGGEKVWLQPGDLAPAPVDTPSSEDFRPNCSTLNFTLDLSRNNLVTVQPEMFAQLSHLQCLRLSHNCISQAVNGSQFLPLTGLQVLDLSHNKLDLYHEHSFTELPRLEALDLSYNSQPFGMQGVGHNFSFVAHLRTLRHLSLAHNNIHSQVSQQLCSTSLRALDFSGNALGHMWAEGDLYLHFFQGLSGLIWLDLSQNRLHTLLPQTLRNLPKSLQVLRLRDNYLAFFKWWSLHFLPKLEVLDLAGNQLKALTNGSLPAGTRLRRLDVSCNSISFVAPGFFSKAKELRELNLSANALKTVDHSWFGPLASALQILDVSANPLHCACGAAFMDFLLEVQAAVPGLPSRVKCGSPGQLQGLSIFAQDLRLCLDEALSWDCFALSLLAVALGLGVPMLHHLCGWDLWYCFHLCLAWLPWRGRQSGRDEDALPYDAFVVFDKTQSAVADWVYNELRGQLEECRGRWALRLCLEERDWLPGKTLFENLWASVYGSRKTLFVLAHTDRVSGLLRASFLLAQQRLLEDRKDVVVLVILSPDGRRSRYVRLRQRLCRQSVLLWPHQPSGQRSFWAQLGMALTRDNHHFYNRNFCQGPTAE
Method in brief: as §1

Structure (SMILES)	IC50 (human TLR7) [nM]	IC50 (human TLR8) [nM]	IC50 (human TLR9) [nM]
CCCN1CCC(c2ccc3[nH]c(-c4cc(-c5cncc(C)c5)c(=O)n(C)c4)c(C(C)C)c3c2)CC1 [Example 332, 5-(3-isopropyl-5-(1-propylpiperidin-4-yl)-1H-indol-2-yl)-1,5′-dimethyl-[3,3′-bipyridin]-2(1H)-one]	4.9	1.1	789
CCCN1CCC(c2ccc3[nH]c(-c4cn(C)c(=O)c(-c5cnn(C)c5)c4C)c(C(C)C)c3c2)CC1 [Example 333, 5-(3-isopropyl-5-(1-propylpiperidin-4-yl)-1H-indol-2-yl)-1,4-dimethyl-3-(1-methyl-1H-pyrazol-4-yl)pyridin-2(1H)-one]	92.2	11.1	3010
CCCN1CCC(c2ccc3[nH]c(-c4cc(-c5cnn(C)c5)c(=O)n(C)c4)c(C(C)C)c3c2)CC1 [Example 334, 5-(3-isopropyl-5-(1-propylpiperidin-4-yl)-1H-indol-2-yl)-1-methyl-3-(1-methyl-1H-pyrazol-4-yl) pyridin-2(1H)-one]	8.6	0.8	487
CCCN1CCC(c2ccc3[nH]c(-c4cc(-c5ccc(NC(C)=O)nc5)c(=O)n(C)c4)c(C(C)C)c3c2)CC1 [Example 335, N-(5′-(3-isopropyl-5-(1-propylpiperidin-4-yl)-1H-indol-2-yl)-1′-methyl-2′-oxo-1′,2′-dihydro-[3,3′-bipyridin]-6-yl)acetamide]	2.4	5.9	529
CCCN1CCC(c2ccc3[nH]c(-c4cc(-c5ccncc5)c(=O)n(C)c4)c(C(C)C)c3c2)CC1 [Example 336, 5-(3-isopropyl-5-(1-propylpiperidin-4-yl)-1H-indol-2-yl)-1-methyl-[3,4′-bipyridin]-2(1H)-one]	10.2	1.2	553
CCCN1CCC(c2ccc3[nH]c(-c4cc(-c5cnc(C)nc5)c(=O)n(C)c4)c(C(C)C)c3c2)CC1 [Example 337, 5-(3-isopropyl-5-(1-propylpiperidin-4-yl)-1H-indol-2-yl)-1-methyl-3-(2-methylpyrimidin-5-yl)pyridin-2(1H)-one]	1.8	11.9	2490
CCCN1CCC(c2ccc3[nH]c(-c4cc(-c5cnc(C6CC6)nc5)c(=O)n(C)c4)c(C(C)C)c3c2)CC1 [Example 338, 3-(2-cyclopropylpyrimidin-5-yl)-5-(3-isopropyl-5-(1-propylpiperidin-4-yl)-1H-indol-2-yl)-1-methylpyridin-2(1H)-one]	1.1	13.5	772

Further lines, results first:

IC50 (human TLR7) [nM]	IC50 (human TLR8) [nM]	IC50 (human TLR9) [nM]	Structure (SMILES)
28.9	2140	1020	CCCN1CCC(c2ccc3[nH]c(-c4cc(-c5cnc(C(F)(F)F)nc5)c(=O)n(C)c4)c(C(C)C)c3c2)CC1 [Example 339, 5-(3-isopropyl-5-(1-propylpiperidin-4-yl)-1H-indol-2-yl)-1-methyl-3-(2-(trifluoromethyl)pyrimidin-5-yl) pyridin-2(1H)-one]
4.5	16.6	1210	CCCN1CCC(c2ccc3[nH]c(-c4cc(-c5cccc(OC)c5)c(=O)n(C)c4)c(C(C)C)c3c2)CC1 [Example 340, 5-(3-isopropyl-5-(1-propylpiperidin-4-yl)-1H-indol-2-yl)-3-(3-methoxyphenyl)-1-methylpyridin-2(1H)-one]
16.2	4.3	714	CCCN1CCC(c2ccc3[nH]c(-c4cc(-c5ccc(F)nc5)c(=O)n(C)c4)c(C(C)C)c3c2)CC1 [Example 341, 6′-fluoro-5-(3-isopropyl-5-(1-propylpiperidin-4-yl)-1H-indol-2-yl)-1-methyl-[3,3′-bipyridin]-2(1H)-one]
12.9	16	3330	CC(C)c1c(-c2cc(-c3ccc(F)nc3)c(=O)n(C)c2)[nH]c2ccc(C3CCN(C(C)C)CC3)cc12 [Example 342, 6′-fluoro-5-(3-isopropyl-5-(1-isopropylpiperidin-4-yl)-1H-indol-2-yl)-1-methyl-[3,3′-bipyridin]-2(1H)-one]
18.3	14.2	1170	Cc1cc(-c2cc(-c3[nH]c4ccc(C5CCN(C(C)C)CC5)cc4c3C(C)C)cn(C)c2=O)cnc1F [Example 343, 6′-fluoro-5-(3-isopropyl-5-(1-isopropylpiperidin-4-yl)-1H-indol-2-yl)-1,5′-dimethyl-[3,3′-bipyridin]-2(1H)-one]
11.5	26.5	322	Cc1ncccc1-c1cc(-c2[nH]c3ccc(C4CCN(C(C)C)CC4)cc3c2C(C)C)cn(C)c1=O [Example 344, 5-(3-isopropyl-5-(1-isopropylpiperidin-4-yl)-1H-indol-2-yl)-1,2′-dimethyl-[3,3′-bipyridin]-2(1H)-one]
